The source of these data is publication PMC12406195, “Understanding the Modes of Action of β‑Ketoiminato Iridium(III) Complexes in Cancer Cells” (Inorganic Chemistry, 2025).

What all share (assay type): cell-based, human
Experiment [1] deals with MCF-7 cells. The experiment is described as follows: Chemosensitivity (MTT cell viability) assay, MCF-7. On the procedure: (§1) All cytotoxicity assays were conducted using human cell lines: breast adenocarcinomas (MDA-MB-231 and MCF-7), pancreatic carcinoma (MIA PaCa-2) and non-cancerous epithelial retinal (ARPE-19) cell lines. All cell lines were routinely maintained as monolayer cultures in appropriate complete media:
(§2) MCF-7, MIA PaCa-2 and ARPE-19 in high glucose DMEM and MDA-MB-231 in RPMI-1640, and both media were supplemented with 10% FBS, 1 mM sodium pyruvate, 2 mM L-glutamine, and 1% pen-strep. All cells were initially grown in T-25 or T-75 flasks at 37 °C and 5% CO2. Before chemosensitivity studies, cell monolayers were passaged using trypsin-EDTA (0.05%) and diluted to a concentration of 1 x 10^4 cells/mL (or 4 x 10^4 cells mL for 24 h assays). All assays were conducted in 96-well plates, in which 100 µL of the cell suspension was added for 24 h at 37 °C and 5% CO2, and then 100 µL of compound/medium dilutions for a further 96 h (or 24 h). All compound stocks were made using sterile DMSO at 100 mM before dilution, and a maximum of 0.1% DMSO was used in each assay. After incubation, 3-(4,5-dimethylthiazol-2-yl)-2,5-diphenyltetrazolium bromide (20 µL, 5 mg/mL in PBS) was added to each well and incubated for 3 h at 37°C and 5% CO2. All solutions were then aspirated, DMSO (150 µL) added to each well, gently mixed, and the absorbance was measured at 540 nm using a ClarioStar spectrophotometer microplate reader. Results were plotted on a logarithmic scale, and the half maximal inhibitory concentration (IC50) was determined from a triplicate of triplicate repeats (n = 9) and reported as an IC 50 ± Standard Deviation (SD).

Experiment [2] deals with ARPE-19 cells. The experiment is described as follows: Chemosensitivity (MTT cell viability) assay, noncancerous ARPE-19. Conditions: ARPE-19 noncancerous, 96 h, n = 9. On the procedure:
The cytotoxicity of the compounds against the cancer cell lines was also compared to the noncancerous retinal epithelial cell line, ARPE-19, to determine the possibility of cancer cell selectivity. […]
as §1, §2

Experiment [3] has as its system MDA-MB-231 cells. The experiment in a line: Acridine orange/ethidium bromide (AO/EB) staining. The conditions noted are these: MDA-MB-231, 48 h. As to the method:
To investigate how the drugs impacted cell viability, acridine orange (AO)/ethidium bromide (EtBr) staining was employed to identify the MDA-MB-231 cells' mode of death in response to compound 1 or CDDP, with AO marking early apoptotic cells in green and EtBr marking late apoptotic or necrotic cells in red. […] This effect was more pronounced than with CDDP, indicating its higher efficacy.
MDA-MB-231 cells at 4000 cells/well were seeded into a black clear -bottom 96-well plate using phenol-red free complete RMPI medium, and incubated for 48 h. The cells were treated with 100 µM of 1 for 4 h alongside an untreated sample (control). […] Fluorescence images were obtained using a Zeiss Observer 7 inverted microscope at excitation at 488 nm and emission at 509 […]
Plasmid DNA (200 ng, pBOS -H2B-GFP, BD Biosciences) was incubated overnight at room temperature with 1 or CDDP at concentrations between 100 and 400 μM in double -distilled H2O (20 μL total volume). […] The experiment was conducted in two biological replicates, and the band intensities were quantified and analyzed using ImageJ software. […]
MDA-MB-231 cells were seeded in 6-well plates at a density of 1.2 × 10⁵ cells/well. […] The samples were then placed on microscope slides, covered with a coverslip, and their morphology was examined using a fluorescence microscope (Eclipse TS100, Nikon). […]

Usually IC50 stands for the concentration needed to halve the response being measured. As to “[Cp*Ir(C16H14NO)(PTA)](PF6) [Compound 1]”, the half-maximal inhibitory concentration (IC50) in experiment [1] (MCF-7, 96 h, n = 9) is 48 ± 3 µM; in experiment [2] it was 10.4 ± 0.7 µM. Moreover, the “Selectivity index (SI)” value in experiment [1] (MCF-7 compared to ARPE-19, 96 h) stood at 0.2. The “AO/EtBr staining (mode of cell death)” value in experiment [3] is listed as “increased staining for both dyes”.
